Assay: Oil recovery from formation core by brine displacement followed by DMS displacement
Conditions: after waterflooding with a brine solution
Protocol: Incremental recovery of oil from a formation core using an oil recovery formulation consisting of dimethyl sulfide following oil recovery from the core by water-flooding was measured to evaluate the effectiveness of DMS as a tertiary oil recovery agent.
Two 5.02 cm long Berea sandstone cores with a core diameter of 3.78 cm and a permeability between 925 and 1325 mD were saturated with a brine having a composition as set forth in Table 7.
After saturation of the cores with brine, the brine was displaced by a Middle Eastern Asphaltic crude oil having the characteristics as set forth above in Table 3 to saturate the cores with oil.
Oil was recovered from each oil saturated core by the addition of brine to the core under pressure and by subsequent addition of DMS to the core under pressure. Each core was treated as follows to determine the amount of oil recovered from the core by addition of brine followed by addition of DMS. Oil was initially displaced from the core by addition of brine to the core under pressure. A confining pressure of 1 MPa was applied to the core during addition of the brine, and the flow rate of brine to the core was set at 0.05 ml/min. The core was maintained at a temperature of 50° C. during displacement of oil from the core with brine. […]

Question: With `CSC` [Dimethyl Sulfide, dimethyl sulfide] as the compound, how does the “Oil recovered, of the oil remaining in the core after the waterflood” value read?
Answer: Its value is “approximately 60%”.

— patent US20140000886A1, “PETROLEUM RECOVERY PROCESS AND SYSTEM” (Shell Oil Company, priority 2012, published 2014)
